Measured values reported in BigSolDB 2.1.

CC(C(=O)O)c1ccc(CC2CCCC2=O)cc1 (stereo not given)
solubility (mole fraction)
Details	283.15 K	288.15 K	293.15 K	298.15 K	303.15 K	308.15 K	313.15 K	318.15 K	323.15 K	328.15 K
in 1,4-dioxane	0.154	0.171	0.19	0.214	0.246	0.272	0.304	0.339	0.378	0.408
in acetonitrile	0.0234	0.0296	0.0364	0.0419	0.059	0.0847	0.113	0.166	0.233	0.318
in ethanol	0.0573	0.0676	0.0717	0.0943	0.123	0.154	0.208	0.252	0.316	0.389
in ethyl acetate	0.0521	0.0621	0.0752	0.0848	0.0996	0.13	0.162	0.19	0.244	0.301
in ethyl orthosilicate	0.0247	0.0293	0.0325	0.0365	0.043	0.0491	0.0565	0.0694	0.0796	0.0991
in isobutyl acetate	0.0261	0.0314	0.0357	0.0451	0.0583	0.0688	0.0913	0.116	0.144	0.191
in isopentyl acetate	0.0253	0.0306	0.035	0.0448	0.0561	0.0674	0.0829	0.109	0.134	0.165
in isopropanol	0.0589	0.0747	0.0874	0.0966	0.128	0.145	0.189	0.224	0.277	0.339
in isopropyl acetate	0.0298	0.0373	0.0443	0.056	0.0694	0.0819	0.11	0.134	0.176	0.229
in methanol	0.0694	0.0783	0.0897	0.118	0.163	0.216	0.283	0.364	0.496	0.628
in methyl acetate	0.0568	0.0659	0.0797	0.0895	0.11	0.136	0.17	0.205	0.255	0.325
in n-butyl acetate	0.0284	0.0338	0.0418	0.0527	0.0621	0.0764	0.096	0.122	0.156	0.205
in n-propanol	0.0526	0.0643	0.0792	0.0905	0.116	0.139	0.184	0.223	0.269	0.338
in n-propyl acetate	0.0384	0.0483	0.0529	0.0631	0.0814	0.0978	0.127	0.155	0.199	0.261
